According to ChEMBL document CHEMBL4715856 (Bioorg Med Chem, 2020):
Converted amounts (≈) assume the structure as drawn.

Columns and labels:
[1] = Inhibition of SARS-CoV papain-like protease using Ub-7-amino-4-trifluoro-methylcoumarin as substrate incubated for 3 mins by fluorescence method; design: species or system Severe acute respiratory syndrome-related coronavirus
[2] = Inhibition of MERS-CoV papain-like protease using Ub-7-amino-4-trifluoro-methylcoumarin as substrate incubated for 3 mins by fluorescence method; design: species or system Middle East respiratory syndrome-related coronavirus
[3] = (§1) Inhibition of SARS-CoV spike protein expressed in Escherichia coli BL21(DE3)pLysS/human ACE2 using 2,2'-azinobis(3-ethylbenzthiazoline-sulfonic acid) preincubated for 2 hrs with biotinylated S protein followed by incubation with ACE2 for 1 hr and subsequent substrate addition by competitive biotinylated ELISA
[4] = as §1, with “acid) at 10 nmol” for “acid)”, “ELISA relative to control” for “ELISA”; conditions: time 3.0 hrs
[5] = Inhibition of SARS-CoV 3C-like protease using abz-SVTLQSG-Tyr(NO2)R as substrate by spectrofluorimetric assay; design: species or system Severe acute respiratory syndrome-related coronavirus
[6] = Inhibition of His-tagged SARS-CoV HKU39849 3C-like protease expressed in Escherichia coli BL21 assessed as reduction in cleavage activity using H2N-TSAVLQSGFRKW-COOH as substrate preincubated for 30 mins followed by substrate addition by HPLC-based assay; design: species or system Severe acute respiratory syndrome-related coronavirus
[7] = Inhibition of SARS-CoV(BJ-01) 3C-like protease infected in African green monkey Vero cells assessed as reduction in viral titer incubated for 48 hrs by crystal violet staining based plaque reduction assay; format: cell-based; conditions: Severe acute respiratory syndrome-related coronavirus, BJ-01, Vero
[8] = Inhibition of MERS-CoV 3C-like protease; design: species or system Middle East respiratory syndrome-related coronavirus
[9] = Inhibition of SARS-CoV 3C-like protease by FRET assay; design: species or system Severe acute respiratory syndrome-related coronavirus
[10] = Inhibition of SARS-CoV2 3C-like protease (3264 to 3569 residues) expressed in Escherichia coli BL21(DE3) BL21-Gold using Dabcyl-KTSAVLQSGFRKM-E(Edans)-NH2 as substrate preincubated for 10 min followed by substrate addition by FRET assay; design: species or system Severe acute respiratory syndrome coronavirus 2
[11] = biological target: T1, mRNA cap guanine-N(7) methyltransferase (Homo sapiens, UniProt O43148)
T1 sequence (O43148 whole entry): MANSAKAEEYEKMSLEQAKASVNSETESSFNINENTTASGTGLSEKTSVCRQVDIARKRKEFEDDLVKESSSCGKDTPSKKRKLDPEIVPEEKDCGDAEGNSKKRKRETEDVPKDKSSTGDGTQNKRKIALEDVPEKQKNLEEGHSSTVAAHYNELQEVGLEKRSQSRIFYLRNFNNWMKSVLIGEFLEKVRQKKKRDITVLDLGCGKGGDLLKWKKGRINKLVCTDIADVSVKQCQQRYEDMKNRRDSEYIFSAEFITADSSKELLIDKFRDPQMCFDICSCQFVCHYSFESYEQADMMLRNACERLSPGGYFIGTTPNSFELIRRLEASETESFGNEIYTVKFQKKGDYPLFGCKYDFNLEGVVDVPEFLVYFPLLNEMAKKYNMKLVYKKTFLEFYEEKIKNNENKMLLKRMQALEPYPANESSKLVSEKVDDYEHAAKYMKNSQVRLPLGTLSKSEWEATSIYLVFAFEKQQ

[12] = system: guanine-N7 methyltransferase (human versus SARS-CoV); assay: in vitro
[13] = system: guanine-N7 methyltransferase (human versus SARS coronavirus WHU); assay: in vitro
[14] = biological target: T1, mRNA cap guanine-N(7) methyltransferase; remark: listed apart in the source
[15] = Inhibition of MERS-CoV NSP13 helicase measured after 5 min by FRET-based assay; design: species or system Middle East respiratory syndrome-related coronavirus
[16] = Inhibition of SARS-CoV C-terminal 6His-tagged papain-like protease expressed in Escherichia coli BL21(DE3) using ubiquitin-AMC as substrate preincubated for 10 mins followed by substrate addition by luminescence spectrometric method; design: species or system Severe acute respiratory syndrome-related coronavirus
[17] = Inhibition of SARS-CoV nucleocapsid protein expressed in Escherichia coli BL21 (DE3) incubated for 1 hr by quantum dots-conjugated oligonucleotide biochip-platform based confocal laser scanning microscopic analysis; design: species or system Severe acute respiratory syndrome-related coronavirus
[18] = Inhibition of SARS-CoV 3C-like protease (9970 to 10887 residues) expressed in Escherichia coli BL21(DE3) CodonPlus-RIL cells using DABCYL-KTSAVLQSGFRKME-EDANS as substrate by FRET assay; design: species or system Severe acute respiratory syndrome-related coronavirus
[19] = Inhibition of SARS-CoV papain-like protease (723 to 1041 residues) expressed in Escherichia coli BL21(DE3) using Arg-Leu-Arg-Gly-Gly-AMC as substrate by fluorescence method; design: species or system Severe acute respiratory syndrome-related coronavirus
[20] = Inhibition of MERS-CoV (KOR/KNIH/002_05_2015) 3C-like protease expressed in Escherichia coli BL21(DE3) using Dabcyl-KTSAVLQSGFRKME-Edans as substrate by fluorometric assay; design: species or system Middle East respiratory syndrome-related coronavirus
[21] = Inhibition of SARS-CoV 3C-like protease expressed in Escherichia coli BL21(DE3) using Dabcyl-KTSAVLQSGFRKME-Edans as substrate by fluorometric assay; design: species or system Severe acute respiratory syndrome-related coronavirus
[22] = Inhibition of SARS-CoV NSP13 helicase in presence of DT20Cy3 and ReleaseBHQ by FRET-based assay; design: species or system Severe acute respiratory syndrome-related coronavirus
[23] = Inhibition of envelope protein in HCoV-229E infected in human MRC-5 cells assessed as reduction in viral replication incubated for 6 days by crystal violet staining based plaque reduction assay; format: cell-based; conditions: Human coronavirus 229E, MRC5, 144 h
[24] = Inhibition of envelope protein in Murine hepatitis virus A59 infected in mouse L929 cells assessed as reduction in viral replication incubated for 24 hrs by crystal violet staining based plaque reduction assay; format: cell-based; conditions: Murine coronavirus, A59, L929, 24 h
[25] = Inhibition of SARS-CoV 3C-like protease expressed in Escherichia coli BL21(DE3) using DABCYL-KTSAVLQSGFRKME-EDANS as substrate preincubated for 1 hr followed by substrate addition and measured after 16 hrs by fluorescence method; design: species or system Severe acute respiratory syndrome-related coronavirus
[26] = Inhibition of SARS-CoV N-terminal His-tagged 3C-like protease expressed in Escherichia coli GJ1158 using 2-aminobenzoyl-SVTLQSG-Tyr(NO2)-R as substrate by quenched-FRET assay; design: species or system Severe acute respiratory syndrome-related coronavirus
[27] = Inhibition of SARS-CoV wild type 3C-like protease using MCA-AVLQSGFR-Lys(Dnp)-Lys-NH2 s substrate by fluorescence method; design: species or system Severe acute respiratory syndrome-related coronavirus
[28] = Inhibition of HcoV-EMC 3C-like protease; design: species or system unidentified human coronavirus
[29] = Inhibition of 3C-like protease in SARS-CoV2 infected in African green monkey vero cells assessed as antiviral activity incubated for 1 hr by crystal violet staining based plaque reduction assay; format: cell-based; conditions: Severe acute respiratory syndrome coronavirus 2, Vero
[30] = Inhibition of SARS-CoV C-terminal (GPH6 residues)-fused wild type 3C-like protease expressed in Escherichia coli BL21(DE3) cells using MCA-AVLQSGFR-Lys(Dnp)-Lys-NH2 s substrate by fluorescence method; design: species or system Severe acute respiratory syndrome-related coronavirus
[31] = Inhibition of SARS-CoV NSP13 helicase using fluorescein and black hole quencher labelled dsDNA as substrate measured after 10 min by FRET-based assay; design: species or system Severe acute respiratory syndrome-related coronavirus
[32] = Inhibition of SARS-CoV wild type NSP13 helicase using Cy3-labeled 31/18-mer as substrate measured after 10 min by FRET-based assay; design: species or system Severe acute respiratory syndrome-related coronavirus

## CCN(CC)C(=S)SSC(=S)N(CC)CC
[1]
  IC50: 14.2 µM
[2]
  IC50: 22.7 µM

## H-SQKSIVAYTM-NH2
[3]
  IC50: 0.0018 µM
[4]
  inhibition: 90%

## O=C(Cc1cncc(Br)c1)c1ccc(-c2ccc(Cl)cc2)o1
[5]
  IC50: 13 µM

## CC1=C(C(=O)OCCc2ccccc2)C(c2ccccc2[N+](=O)[O-])C2=C(CCCC2=O)N1 (stereo not drawn)
[6]
  IC50: 2.5 µM
[7]
  IC50: 8.9 µM

## CC(C)(C)OC(=O)Nc1cccn([C@@H](CC2CC2)C(=O)N[C@@H](C[C@@H]2CCCC2=O)C(=O)C(=O)NCc2ccccc2)c1=O
[8]
  IC50: 0.58 µM
[9]
  IC50: 0.9 µM
[10]
  IC50: 0.67 µM

## Nc1ncnc2c1ncn2[C@@H]1O[C@H](C[C@@H](N)CC[C@H](N)C(=O)O)[C@@H](O)[C@H]1O [SINEFUNGIN]
[11]
  IC50: < 0.05 µM
[12]
  selectivity ratio: < 2.63
[13]
  selectivity ratio: 0.32
[14]
  IC50: 0.00055 µM

## Sc1nnc(NNc2ccc(I)cc2)n1NC1C=CCC1 (stereo not drawn)
[15]
  IC50: 2.5 µM

## Nc1nc2[nH]cnc2c(=S)[nH]1 [THIOGUANINE]
[16]
  IC50: 5 µM

## O=C(O[C@@H]1Cc2c(O)cc(O)cc2O[C@H]1c1ccc(O)c(O)c1)c1cc(O)c(O)c(O)c1 [(-)-CATECHINGALLATE]
[17]
  IC50: 5 ng/mL (≈ 0.0113 µM)

## C=C(C)C(Cc1c(OC)ccc(C(=O)/C=C/c2ccc(O)cc2)c1O)C(=O)O (stereo not drawn)
[18]
  IC50: 11.4 µM
[19]
  IC50: 1.2 µM

## O=C[C@H](C[C@@H]1CCNC1=O)NC(=O)[C@H](Cc1ccccc1)NC(=O)/C=C/c1ccc(Cl)cc1F
[20]
  IC50: 1.7 µM
[21]
  IC50: 0.2 µM

## Cc1ncc(CO)c(C23OC4(O)CC(O)(CC(O)(C4)O2)O3)c1O
[22]
  IC50: 3 µM

## N=C(N)NC(=O)c1nc(Cl)c(N2CCCCCC2)nc1N [N,N-HEXAMETHYLENEAMILORIDE]
[23]
  EC50: 1.34 µM
[24]
  EC50: 3.91 µM

## O=C(O[C@@H]1Cc2c(O)cc(O)cc2O[C@H]1c1cc(O)c(O)c(O)c1)c1cc(O)c(O)c(O)c1 [GALLOCATECHIN GALLATE]
[17]
  IC50: 5 ng/mL (≈ 0.0109 µM)

## C[C@@H]1O[C@@H](O[C@H]2[C@@H](Oc3cc(O)c4c(=O)cc(-c5ccc(O)cc5)oc4c3)O[C@H](CO)[C@@H](O)[C@@H]2O)[C@H](O)[C@H](O)[C@H]1O
[25]
  IC50: 27.5 µM

## O=C(Oc1cncc(Cl)c1)c1cccs1
[26]
  IC50: 0.5 µM

## Cc1cc(C(=O)N[C@@H](C)C(=O)N[C@H](C(=O)N[C@@H](CC(C)C)C(=O)N[C@H](/C=C/C(=O)OCc2ccccc2)C[C@@H]2CCNC2=O)C(C)C)no1
[27]
  Ki: 1.9 µM
[28]
  IC50: 0.28 µM
[29]
  EC50: 16.8 µM
[30]
  Ki: 2.3 µM

## C=CCn1c(S)nnc1CSc1ccccc1[N+](=O)[O-]
[31]
  IC50: 6 µM
[32]
  IC50: 5.9 µM
